Measurements taken from ChEMBL document CHEMBL1201862, “PubChem BioAssay data set” (2004).
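Growth conditions: 96-well plates. Treatment: test compound, 48 hours, 5 concentrations. Analysis: linear interpolation between bracketing concentrations; unreached endpoints set to highest concentration. Here, GI50 denotes the concentration required for 50% inhibition of growth.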 Active and inactive are the calls of the source. Cut-off read from the data, not from the text of the source: active = GI50 up to about 1.1 µM and inactive = higher.

What was measured:
Experiment in all cases: NCI tumour cell line growth inhibition, 48 h
[1] = system: MOLT-4
[2] = system: SF-295
[3] = system: OVCAR-3
[4] = system: ACHN
[5] = system: A498
[6] = system: MDA-N
[7] = system: NCI-H226
[8] = system: SK-OV-3
[9] = system: M14
[10] = system: EKVX
[11] = system: RXF 393
[12] = system: Malme-3M
[13] = system: SK-MEL-28
[14] = system: CAKI-1
[15] = system: SNB-75
[16] = system: U-251
[17] = system: T47D
[18] = system: MCF7
[19] = system: KM12
[20] = system: TK-10
[21] = system: HCT-15
[22] = system: DU-145
[23] = system: SF-539
[24] = system: SNB-19
[25] = system: CCRF-CEM
[26] = system: OVCAR-8
[27] = system: OVCAR-5
[28] = system: COLO 205
[29] = system: RPMI-8226
[30] = system: SK-MEL-5
[31] = system: K562
[32] = system: HL-60
[33] = system: SN12C
[34] = system: SW-620
[35] = system: SR
[36] = system: PC-3
[37] = system: SF-268
[38] = system: MDA-MB-231
[39] = system: NCI-H522
[40] = system: UACC-62
[41] = system: NCI/ADR-RES
[42] = system: NCI-H23
[43] = system: MDA-MB-435
[44] = system: OVCAR-4
[45] = system: Hs-578T
[46] = system: SK-MEL-2
[47] = system: HOP-62
[48] = system: HT-29
[49] = system: UO-31
[50] = system: UACC-257
[51] = system: HOP-92
[52] = system: IGROV-1
[53] = system: NCI-H460
[54] = system: BT-549
[55] = system: HCC 2998
[56] = system: HCT-116
[57] = system: 786-0
[58] = system: A549
[59] = system: LOX IMVI

With `O=C(c1ccco1)C1CC(c2c(O)ccc3ccccc23)=NN1` (stereo unspecified) the GI50 [1] was 12.1 µM (inactive), the GI50 [2] was 11.2 µM (inactive) and the GI50 [3] was 12.2 µM (inactive). For the same compound, the GI50 [4] was 12.5 µM (inactive), the GI50 [5] was 18.4 µM (inactive) and the GI50 [6] was 12.6 µM (inactive). For the same compound, the GI50 [7] was 15.2 µM (inactive), the GI50 [8] was 21 µM (inactive) and the GI50 [9] was 11.9 µM (inactive). For the same compound, the GI50 [10] was 13.2 µM (inactive), the GI50 [11] was 17.4 µM (inactive) and the GI50 [12] was 16 µM (inactive). The GI50 [13] was 21 µM (inactive), the GI50 [14] was 16.2 µM (inactive) and the GI50 [15] was 11.8 µM (inactive). The GI50 [16] was 14.7 µM (inactive), the GI50 [17] was 3.33 µM (inactive) and the GI50 [18] was 3.15 µM (inactive). The GI50 [19] was 11.4 µM (inactive), the GI50 [20] was 14.3 µM (inactive) and the GI50 [21] was 19 µM. For the same compound, the GI50 [22] was 14.1 µM (inactive), the GI50 [23] was 13.1 µM (inactive) and the GI50 [24] was 16.4 µM (inactive). For the same compound, the GI50 [25] was 9.71 µM (inactive), the GI50 [26] was 18.3 µM (inactive) and the GI50 [27] was 14.9 µM (inactive). For the same compound, the GI50 [28] was 6.37 µM (inactive), the GI50 [29] was 13.6 µM (inactive) and the GI50 [30] was 13.9 µM (inactive). The GI50 [31] was 12.4 µM (inactive), the GI50 [32] was 13.5 µM (inactive) and the GI50 [33] was 20.1 µM (inactive). The GI50 [34] was 11.8 µM (inactive), the GI50 [35] was 2.72 µM (inactive) and the GI50 [36] was 8.79 µM (inactive). The GI50 [37] was 10.1 µM (inactive), the GI50 [38] was 13.2 µM (inactive) and the GI50 [39] was 4.2 µM (inactive). The GI50 [40] was 12.6 µM (inactive), the GI50 [41] was 17.9 µM (inactive) and the GI50 [42] was 17.1 µM (inactive). The GI50 [43] was 4.55 µM (inactive), the GI50 [44] was 25.4 µM (inactive) and the GI50 [45] was 18.5 µM (inactive). The GI50 [46] was 16.6 µM (inactive), the GI50 [47] was 13.8 µM (inactive) and the GI50 [48] was 11.8 µM (inactive). For the same compound, the GI50 [49] was 11.1 µM (inactive), the GI50 [50] was 20.6 µM (inactive) and the GI50 [51] was 13.6 µM (inactive). For the same compound, the GI50 [52] was 13.3 µM (inactive), the GI50 [53] was 7.85 µM (inactive) and the GI50 [54] was 14.9 µM (inactive). For the same compound, the GI50 [55] was 12.1 µM (inactive).

With `CCN(CC)CCOc1ccc(N2Cc3cc(OC)c(OC)cc3C2=O)cc1` the GI50 [1] was > 100 µM (inactive), the GI50 [2] was > 100 µM (inactive) and the GI50 [3] was > 100 µM (inactive). The GI50 [4] was > 100 µM (inactive), the GI50 [5] was > 100 µM (inactive) and the GI50 [6] was > 100 µM (inactive). For the same compound, the GI50 [7] was > 100 µM (inactive), the GI50 [8] was > 100 µM (inactive) and the GI50 [9] was > 100 µM (inactive). The GI50 [10] was > 100 µM (inactive), the GI50 [11] was > 100 µM (inactive) and the GI50 [12] was > 100 µM (inactive). The GI50 [13] was > 100 µM (inactive), the GI50 [14] was > 100 µM (inactive) and the GI50 [16] was > 100 µM (inactive). The GI50 [17] was > 100 µM (inactive), the GI50 [18] was > 100 µM (inactive) and the GI50 [19] was > 100 µM (inactive). The GI50 [20] was > 100 µM (inactive), the GI50 [21] was > 100 µM and the GI50 [22] was > 100 µM (inactive). For the same compound, the GI50 [23] was > 100 µM (inactive), the GI50 [24] was > 100 µM (inactive) and the GI50 [56] was > 100 µM (inactive). For the same compound, the GI50 [25] was > 100 µM (inactive), the GI50 [26] was > 100 µM (inactive) and the GI50 [27] was > 100 µM (inactive). The GI50 [28] was > 100 µM (inactive), the GI50 [29] was > 100 µM (inactive) and the GI50 [30] was > 100 µM (inactive). For the same compound, the GI50 [31] was > 100 µM (inactive), the GI50 [57] was > 100 µM (inactive) and the GI50 [32] was > 100 µM (inactive). The GI50 [33] was > 100 µM (inactive), the GI50 [34] was > 100 µM (inactive) and the GI50 [35] was > 100 µM (inactive). The GI50 [36] was > 100 µM (inactive), the GI50 [37] was > 100 µM (inactive) and the GI50 [38] was > 100 µM (inactive). The GI50 [58] was > 100 µM (inactive), the GI50 [39] was > 100 µM (inactive) and the GI50 [40] was > 100 µM (inactive). For the same compound, the GI50 [41] was > 100 µM (inactive), the GI50 [42] was > 100 µM (inactive) and the GI50 [43] was > 100 µM (inactive). For the same compound, the GI50 [44] was > 100 µM (inactive), the GI50 [45] was > 100 µM (inactive) and the GI50 [46] was > 100 µM (inactive). The GI50 [47] was > 100 µM (inactive), the GI50 [48] was > 100 µM (inactive) and the GI50 [59] was > 100 µM (inactive). The GI50 [49] was < 0.01 µM (active), the GI50 [50] was > 100 µM (inactive) and the GI50 [51] was > 100 µM (inactive). For the same compound, the GI50 [52] was > 100 µM (inactive), the GI50 [53] was > 100 µM (inactive) and the GI50 [54] was > 100 µM (inactive). For the same compound, the GI50 [55] was > 100 µM (inactive).

`COC(=O)[C@]12CC[C@H]3CN(C(=O)OCc4ccccc4)[C@H]([C@H]31)[C@H](c1ccco1)N2S(=O)(=O)c1ccc(C)cc1` was tested, and the GI50 [1] was 21.8 µM (inactive), the GI50 [2] was 25.9 µM (inactive) and the GI50 [3] was 19.1 µM (inactive). For the same compound, the GI50 [4] was 35.3 µM (inactive), the GI50 [5] was 27.4 µM (inactive) and the GI50 [6] was 18.9 µM (inactive). For the same compound, the GI50 [7] was 27.5 µM (inactive), the GI50 [8] was 52.1 µM (inactive) and the GI50 [9] was 17.5 µM (inactive). For the same compound, the GI50 [10] was 44.4 µM (inactive), the GI50 [11] was 18.2 µM (inactive) and the GI50 [12] was 21.3 µM (inactive). The GI50 [13] was 39.2 µM (inactive), the GI50 [14] was 28.8 µM (inactive) and the GI50 [16] was 27.9 µM (inactive). The GI50 [17] was 27.6 µM (inactive), the GI50 [18] was 17.5 µM (inactive) and the GI50 [19] was 19.3 µM (inactive). For the same compound, the GI50 [20] was 33.2 µM (inactive), the GI50 [21] was 15.4 µM and the GI50 [22] was 32.3 µM (inactive). For the same compound, the GI50 [23] was 33.1 µM (inactive), the GI50 [24] was 34 µM (inactive) and the GI50 [56] was 14.9 µM (inactive). For the same compound, the GI50 [25] was 11.4 µM (inactive), the GI50 [26] was 28.9 µM (inactive) and the GI50 [27] was 38.5 µM (inactive). For the same compound, the GI50 [28] was 19.8 µM (inactive), the GI50 [29] was 11.6 µM (inactive) and the GI50 [30] was 16.5 µM (inactive). The GI50 [31] was 16.9 µM (inactive), the GI50 [57] was 17.5 µM (inactive) and the GI50 [32] was 16.3 µM (inactive). The GI50 [33] was 18.5 µM (inactive), the GI50 [34] was 30.4 µM (inactive) and the GI50 [35] was 13.5 µM (inactive). For the same compound, the GI50 [36] was 31 µM (inactive), the GI50 [37] was 24.2 µM (inactive) and the GI50 [38] was 35 µM (inactive). For the same compound, the GI50 [58] was 31.8 µM (inactive), the GI50 [39] was 19.2 µM (inactive) and the GI50 [40] was 15 µM (inactive). The GI50 [41] was 23.5 µM (inactive), the GI50 [42] was 24.7 µM (inactive) and the GI50 [43] was 23.3 µM (inactive). The GI50 [44] was 28.5 µM (inactive), the GI50 [45] was 73.5 µM (inactive) and the GI50 [46] was 20.7 µM (inactive). For the same compound, the GI50 [47] was 25.8 µM (inactive), the GI50 [48] was 20.6 µM (inactive) and the GI50 [59] was 16.3 µM (inactive). For the same compound, the GI50 [49] was 20.9 µM (inactive), the GI50 [50] was 20.3 µM (inactive) and the GI50 [51] was 12.8 µM (inactive). The GI50 [52] was 20.5 µM (inactive), the GI50 [53] was 26.5 µM (inactive) and the GI50 [54] was 15.7 µM (inactive). For the same compound, the GI50 [55] was 19.5 µM (inactive).
